# What was measured:
# [1] = tested on: TAC mice; test: TAC mice, 6-week minipump treatment: left ventricular pressure by Mikro-tip catheter; type: in vivo; conditions: 6 weeks, CV-8972 10 mg/kg/day, TAC control −5697±417
# [2] = tested on: TAC mice; test: TAC mice, 6-week minipump treatment: echocardiography; type: in vivo; conditions: in words
# [3] = tested on: TAC mice; test: TAC mice, 6-week minipump treatment: cardiac fibrosis, Masson's trichrome; type: in vivo; conditions: 6 weeks, TMZ 6, NA 2.4, CV-8814 7.5, CV-8972 10 mg/kg/day, TAC control 10.7±1
# [4] = tested on: TAC mice; test: TAC mice, 6-week minipump treatment: heart weight and heart weight/body weight; type: in vivo; conditions: in words, 6 weeks, NA 2.4 mg/kg/day
# [5] = tested on: isolated hearts after ischemia-reperfusion; test: Ischemia-reperfusion (IR), isolated hearts (Langendorff): cardiac function (left ventricular pressure); set-up: species or system mice; conditions: in words; TMZ 20 μM; TNF 2 μM each; TNS 20 μM each
# Procedure: FIG. 38 is a schematic of the ischemia-reperfusion (IR) method used to analyze the effects of selected compositions on coronary flow, cardiac function, and infarct size. […] At 20 minutes, ischemia was induced, and coronary flow was analyzed. At 50 minutes, reperfusion was initiated to restore blood flow. At 170 minutes, coronary flow and cardiac function was analyzed, and then the hearts were preserved, sectioned, and infarct size was measured by triphenyltetrazolium chloride (TTC) staining.
# [6] = to the end of the study (6 weeks)
smiles,measurement,setting,value
"COc1ccc(CN2CCN(CCOC(=O)c3cccnc3)CC2)c(OC)c1OC [CV-8972, 2-(4-(2,3,4-trimethoxybenzyl)piperazin-1-yl)ethyl nicotinate]",−dp/dtm,[1],−4126±339 mm Hg/sec
same,EF,[2]; 3-weeks after TAC,significantly increased
same,EF,[2]; [6],protective effect was sustained
"COc1ccc(CN2CCN(CCO)CC2)c(OC)c1OC [CV-8814, 2-(4-(2,3,4-trimethoxybenzyl)piperazin-1-yl)ethan-1-ol]",cardiac fibrosis (fibrotic area to whole heart tissue area),[3],6.6±0.6%
same,EF,[2]; 3-weeks after TAC,significantly increased
same,EF,[2]; [6],protective effect was sustained
"O=C(O)c1cccnc1 [NA, nicotinic acid, reference compound]",effect on cardiac remodeling,[4],no significant effect on cardiac remodeling
same,IVSd,"[2]; TAC mice, NA 2.4 mg/kg/day",decreased IVSd
same,LV mass,"[2]; TAC mice, NA 2.4 mg/kg/day",no effect on LV mass
"COc1ccc(CN2CCNCC2)c(OC)c1OC [TMZ, trimetazidine]",cardiac function (LVDP) after IR,[5],prevented a decline in cardiac function
